Experimental data: patent US9156836B2, “Tricyclic triazole compounds that modulate HSP90 activity” (Synta Pharmaceuticals Corp., priority 2008, dated 2015)
pIC50: −log10 of the molar value.

The molecules below were run on Hsp90 (assay: IC50 of compounds of the invention (Table 2; Her2 degradation Method 2, MV-4-11 cell survival, Cell Counting Kit-8)). Conditions: text calls it IC50 for Her2 degradation; Method 2: MV-4-11 cells, 72 hours; read-out: IC50 of compounds of the invention for inhibition of Hsp90.
Format: cell-based, human
Procedure: MV-4-11 cells (20,000 cells/well) were cultured in 96-well plates and maintained at 37° C. for several hours. The cells were treated with a compound of the invention or 17AAG (a positive control) at various concentrations and incubated at 37° C. for 72 hours. Cell survival was measured with Cell Counting Kit-8 (Dojindo Laboratories, Cat. # CK04).

Compound	pIC50
NC(=O)c1nnc2n1CC(O)C(O)Cc1cc(O)cc(O)c1-2 (stereo not drawn) [Compound 4, 6,7,10,12-tetrahydroxy-5,6,7,8-tetrahydrobenzo[c][1,2,4]triazolo[4,3-a]azocine-3-carboxamide]	4.61
NC(=O)c1nnc2n1CC(Br)C(Br)Cc1cc(O)cc(O)c1-2 (stereo not drawn) [Compound 5, 6,7-dibromo-10,12-dihydroxy-5,6,7,8-tetrahydrobenzo[c][1,2,4]triazolo[4,3-a]azocine-3-carboxamide compound with dibromine (1:1)]	4.63
NC(=O)c1nnc2n1CCCc1cc(O)cc(O)c1-2 [Compound 12, 9,11-dihydroxy-6,7-dihydro-5H-benzo[c][1,2,4]triazolo[4,3-a]azepine-3-carboxamide]	4.06
NC(=O)c1nnc2n1CCCCc1cc(O)cc(O)c1-2 [Compound 2, 10,12-dihydroxy-5,6,7,8-tetrahydrobenzo[c][1,2,4]triazolo[4,3-a]azocine-3-carboxamide]	4.91
NC(=O)c1nnc2n1C/C=C\Cc1cc(O)cc(O)c1-2 [Compound 3, (Z)-10,12-dihydroxy-5,8-dihydrobenzo[c][1,2,4]triazolo[4,3-a]azocine-3-carboxamide]	4.77

The molecules below were run on Her2 (assay: Degradation of Her2 in BT-474 cells, Western blot (Method 1)). Conditions: 0.5 μM, overnight.
Format: cell-based, human
Procedure: Human high-Her2 breast carcinoma BT474 (HTB-20), SK-BR-3 (HTB-30) and MCF-7 breast carcinoma (HTB-22) from American Type Culture Collection, VA, USA were grown in Dulbecco's modified Eagle's medium with 4 mM L-glutamine and antibiotics (100 IU/ml penicillin and 100 ug/ml streptomycine;GibcoBRL). To obtain exponential cell growth, cells were trypsinized, counted and seeded at a cell density of 0.5×10^6 cells/ml regularly, every 3 days. All experiments were performed on day 1 after cell passage.
BT-474 cells are treated with 0.5 μM, 2 μM, or 5 μM of 17AAG (a positive control) or 0.5 μM, 2 μM, or 5 μM of a compound of the invention overnight in DMEM medium. After treatment, each cytoplasmic sample is prepared from 1×10^6 cells by incubation of cell lysis buffer (#9803, cell Signaling Technology) on ice for 10 minutes. The resulting supernatant used as the cytosol fractions is dissolved with sample buffer for SDS-PAGE and run on a SDS-PAGE gel, blotted onto a nitrocellulose membrane by using semi-dry transfer. Non-specific binding to nitrocellulose is blocked with 5% skim milk in TBS with 0.5% Tween at room temperature for 1 hour, then probed with anti-Her2/ErB2 mAb (rabbit IgG, #2242, Cell Signaling) and anti-Tubulin (T9026, Sigma) as housekeeping control protein. […]

Compound	Degradation of Her2
C=CCNC1=C2C[C@@H](C)C[C@H](OC)[C@H](O)[C@@H](C)/C=C(\C)[C@H](OC(N)=O)[C@@H](OC)/C=C\C=C(/C)C(=O)NC(=CC1=O)C2=O [Compound 17AAG, 17-allylamino-17-demethoxygeldanamycin]	partial degradation
